In PubChem BioAssay AID1963828 (Molecular Pharmacology Branch, DTP, NCI, 2024):

Tested on: 991263-137-R1-J2-PDC complex spheroid viability
Test: Anticancer human tumor 991263-137-R1-J2-PDC patient-derived colon adenocarcinoma cell line growth inhibition [POLQ]
Conditions: for IC50: curve of first compound; for viability, T/C: stronger effect = lower value
Procedure, shortened: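 Patient-derived tumour cells were co-cultured with HUVEC and mesenchymal stem cells as multicellular spheroids at 37 °C. They were treated with POLQ inhibitors (novobiocin, ART-558, RP6685) alone or combined with other agents. Top concentrations were at or near clinical Cmax (otherwise 10 microM; SN-38 at 1 microM), decreasing in half-log steps.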

[1] = second compound 0.0316 µM, first compound 0.00316 µM
[2] = second compound 0.0316 µM, first compound 0.01 µM
[3] = second compound 0.0316 µM, first compound 0.0316 µM
[4] = second compound 0.0316 µM, first compound 0.1 µM
[5] = second compound 0.0316 µM, first compound 0.316 µM
[6] = second compound 0.0316 µM, first compound 1 µM
[7] = second compound 0.1 µM, first compound 0.00316 µM
[8] = second compound 0.1 µM, first compound 0.01 µM
[9] = second compound 0.1 µM, first compound 0.0316 µM
[10] = second compound 0.1 µM, first compound 0.1 µM
[11] = second compound 0.1 µM, first compound 0.316 µM
[12] = second compound 0.1 µM, first compound 1 µM
[13] = second compound 0.316 µM, first compound 0.00316 µM
[14] = second compound 0.316 µM, first compound 0.01 µM
[15] = second compound 0.316 µM, first compound 0.0316 µM
[16] = second compound 0.316 µM, first compound 0.1 µM
[17] = second compound 0.316 µM, first compound 0.316 µM
[18] = second compound 0.316 µM, first compound 1 µM
[19] = second compound 1 µM, first compound 0.00316 µM
[20] = second compound 1 µM, first compound 0.01 µM
[21] = second compound 1 µM, first compound 0.0316 µM
[22] = second compound 1 µM, first compound 0.1 µM
[23] = second compound 1 µM, first compound 0.316 µM
[24] = second compound 1 µM, first compound 1 µM
[25] = second compound 3.16 µM, first compound 0.00316 µM
[26] = second compound 3.16 µM, first compound 0.01 µM
[27] = second compound 3.16 µM, first compound 0.0316 µM
[28] = second compound 3.16 µM, first compound 0.1 µM
[29] = second compound 3.16 µM, first compound 0.316 µM
[30] = second compound 3.16 µM, first compound 1 µM
[31] = second compound 10 µM, first compound 0.00316 µM
[32] = second compound 10 µM, first compound 0.01 µM
[33] = second compound 10 µM, first compound 0.0316 µM
[34] = second compound 10 µM, first compound 0.1 µM
[35] = second compound 10 µM, first compound 0.316 µM
[36] = second compound 10 µM, first compound 1 µM
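Also: spheroids exposed to compounds for 7 days before readout.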
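For viability, T/C in this document: 100% = DMSO vehicle control viability.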

## C=CCn1c(=O)c2cnc(Nc3ccc(N4CCN(C)CC4)cc3)nc2n1-c1cccc(C(C)(C)O)n1 + COC1C(OC(N)=O)C(O)C(Oc2ccc3c(O)c(NC(=O)c4ccc(O)c(CC=C(C)C)c4)c(=O)oc3c2C)OC1(C)C
Second compound 0.0316 µM
  IC50: > 1000 nM
Second compound 0.1 µM
  IC50: > 1000 nM
Second compound 0.316 µM
  IC50: > 1000 nM
Second compound 1 µM
  IC50: > 1000 nM
Second compound 3.16 µM
  IC50: > 1000 nM
Second compound 10 µM
  IC50: > 1000 nM
[1]
  viability, T/C: 116%
[2]
  viability, T/C: 115%
[3]
  viability, T/C: 105%
[4]
  viability, T/C: 107%
[5]
  viability, T/C: 95.6%
[6]
  viability, T/C: 101%
[7]
  viability, T/C: 94.2%
[8]
  viability, T/C: 109%
[9]
  viability, T/C: 91.1%
[10]
  viability, T/C: 97%
[11]
  viability, T/C: 108%
[12]
  viability, T/C: 77.4%
[13]
  viability, T/C: 102%
[14]
  viability, T/C: 110%
[15]
  viability, T/C: 92.6%
[16]
  viability, T/C: 97.8%
[17]
  viability, T/C: 100%
[18]
  viability, T/C: 108%
[19]
  viability, T/C: 85.1%
[20]
  viability, T/C: 100%
[21]
  viability, T/C: 96.8%
[22]
  viability, T/C: 98.7%
[23]
  viability, T/C: 104%
[24]
  viability, T/C: 98%
[25]
  viability, T/C: 111%
[26]
  viability, T/C: 81.2%
[27]
  viability, T/C: 119%
[28]
  viability, T/C: 105%
[29]
  viability, T/C: 115%
[30]
  viability, T/C: 93.4%
[31]
  viability, T/C: 98.1%
[32]
  viability, T/C: 107%
[33]
  viability, T/C: 102%
[34]
  viability, T/C: 92.5%
[35]
  viability, T/C: 110%
[36]
  viability, T/C: 105%

## COc1cccc(OCCCN)c1-c1cc(Nc2cnc(C#N)cn2)n[nH]1 + COC1C(OC(N)=O)C(O)C(Oc2ccc3c(O)c(NC(=O)c4ccc(O)c(CC=C(C)C)c4)c(=O)oc3c2C)OC1(C)C
Second compound 0.0316 µM
  IC50: 276 nM
Second compound 0.1 µM
  IC50: 421 nM
Second compound 0.316 µM
  IC50: 338 nM
Second compound 1 µM
  IC50: 459 nM
Second compound 3.16 µM
  IC50: 491 nM
Second compound 10 µM
  IC50: 513 nM
[1]
  viability, T/C: 111%
[2]
  viability, T/C: 109%
[3]
  viability, T/C: 84.4%
[4]
  viability, T/C: 63.6%
[5]
  viability, T/C: 52.1%
[6]
  viability, T/C: 35.6%
[7]
  viability, T/C: 97.3%
[8]
  viability, T/C: 89.4%
[9]
  viability, T/C: 92.9%
[10]
  viability, T/C: 69.2%
[11]
  viability, T/C: 59.6%
[12]
  viability, T/C: 28.7%
[13]
  viability, T/C: 99.3%
[14]
  viability, T/C: 104%
[15]
  viability, T/C: 102%
[16]
  viability, T/C: 77.8%
[17]
  viability, T/C: 53.2%
[18]
  viability, T/C: 29.6%
[19]
  viability, T/C: 111%
[20]
  viability, T/C: 80%
[21]
  viability, T/C: 80.6%
[22]
  viability, T/C: 75.8%
[23]
  viability, T/C: 61.4%
[24]
  viability, T/C: 33.7%
[25]
  viability, T/C: 109%
[26]
  viability, T/C: 74.2%
[27]
  viability, T/C: 91.9%
[28]
  viability, T/C: 87.5%
[29]
  viability, T/C: 59.3%
[30]
  viability, T/C: 34.8%
[31]
  viability, T/C: 75.8%
[32]
  viability, T/C: 95.2%
[33]
  viability, T/C: 90%
[34]
  viability, T/C: 76.9%
[35]
  viability, T/C: 59.3%
[36]
  viability, T/C: 37.9%
